Results reported in patent publication US12084422B2, “Phenyl-n-quinoline derivatives for treating a RNA virus infection” (ABIVAX, priority 2018, dated 2024).

Experiments:
RSV A2 = assay: Screening for RSV inhibition using Viral ToxGlo assay in HEp-2 cells; assay type: cell-based; details: human respiratory syncytial virus, HEp-2, 72 h
Method: Protocol for Screening Antiviral Compounds for RSV Inhibition and Cytotoxicity Using Viral ToxGlo Assay
HEp-2 cells were maintained in Eagle's minimum essential medium (EMEM) with Earle's BSS adjusted to contain 2 mM L-glutamine, 10% fetal bovine serum, 100 U/ml penicillin and 100 μg/ml streptomycin. For the purposes of the screening assay they were grown to 90% confluency, trypsinized and recovered. The trypsin was neutralised with cell culture media and cells were centrifuged at 150×g for 5 minutes before discarding the supernatant and resuspending cell pellet in assay media (EMEM with Earle's BSS adjusted to contain 2 mM L-glutamine, 2% fetal bovine serum and 100 U/ml penicillin and 100 μg/ml streptomycin). The cells were seeded into white clear-bottomed cell culture plates at a density of 1.5×10^4 cells/well in 50 μl and 4×10^3 cells/well in 25 μl for 96 well plates and 384 well plates respectively. For the media/background control column assay media only was added. Cell plates were placed in a humid chamber and incubated overnight at 37° C./5% CO2. After overnight incubation cells were checked for confluency and healthy appearance.
Test articles were made up at 10× test concentration in a maximum DMSO concentration of 10% (final assay concentration maximal 1% DMSO) and added to the cell plates in volumes of 10 μl for 96 well plates and 5 μl for 384 well plates. For cell control and virus control wells the test article solvent only was added. Virus or assay media for cytotoxicity test wells and media/cell control wells was added immediately after test articles at an MOI of 0.5, 40 or 20 μl for 96 and 384 well plates respectively. Virus suspension was prepared by thawing RSV A2 frozen stocks and diluting to the required concentration of plaque forming units in assay media on ice.
(§1) Cell plates were further incubated inside a humid chamber for 72 h p.i at 37° C./5% CO2. After the incubation period cells were observed under the microscope to check for characteristic cytopathic effect in virus control wells and healthy cells in the cell control wells. After plates were adjusted to room temperature 20/40 μl Viral ToxGlo (Promega) was added to each well of the 384/96 well cell plates. Plates were incubated at room temperature, protected from light on a plate rocker for 20 minutes before measuring the luminescence on a spectrophotometer (Biotek Synergy HTX).
RSV inhibition was calculated as percentage of cytopathic effect inhibition relative to the virus control and cytotoxicity as percentage of cell survival relative to cell control wells. This allowed EC50 values to be calculated for each test article where a virus inhibition or cytotoxic dose response was identified. EC50 values ranging between 0.001 µM and 5 μM could thus be determined for compounds 1, 6, 10, 13, 28, 38, 43, 47, 48, 49, 50, 51, 52, 53, 54, 55, 56 and 57.

DENV-2 strain 16681 = assay: Screening for DENV-2 inhibition using Viral ToxGlo assay in A549 cells; assay type: cell-based, Dengue 2 virus; details: Dengue virus, DENV2, A549, 120 h, read-out: % DENV-2 Inhibition Mean (n = 3)
Method: Protocol for Screening Antiviral Compounds for DENV-2 Inhibition and Cytotoxicity Using Viral ToxGlo Assay
A549 cells were maintained in Dulbecco's Modified Eagle Medium (DMEM) supplemented with 10% fetal bovine serum, 100 U/ml penicillin and 100 μg/ml streptomycin. For the purposes of the screening assay they were grown to 90% confluency, trypsinized and recovered. The trypsin was neutralised with cell culture media and cells were centrifuged at 150×g for 5 minutes before discarding the supernatant and resuspending cell pellet in assay media (DMEM supplemented with 2% fetal bovine serum and 100 U/ml penicillin and 100 μg/ml streptomycin). The cells were seeded into 96-well white clear-bottomed cell culture plates at a density of 1.0×10^4 cells/well in 50 μl. For the media/background control column assay media only was added. Cell plates were placed in a humid chamber and incubated overnight at 37° C./5% CO2. After overnight incubation cells were checked for confluency and healthy appearance.
Test compounds were prepared at a final concentration of 10 μM, in a maximum DMSO concentration of 1% (final assay concentration maximal 0.1% DMSO) and added to the cell plates in volumes of 10 μl. For cell control and virus control wells the test article solvent only was added. As a positive inhibition control, 7-Deaza-2′-C-methyladenosine was added at 100 μM in 3 wells. Virus (DENV-2 strain 16681) or assay media for cytotoxicity test wells and media/cell control wells was added immediately after test articles at an MOI of 0.5, 40 for 96 well plates respectively. Virus suspension was prepared by thawing DENV-2 frozen stocks and diluting to the required concentration of plaque forming units in assay media.
as §1, with “5 days” for “72 h”, “20” for “20/40”, “96-well” for “384/96 well”, “temperature” for “temperature, protected from light on a plate rocker”, “5” for “20”, “(Envision, PerkinElmer).” for “(Biotek Synergy HTX).”
DENV-2 inhibition was calculated as percentage of cytopathic effect inhibition relative to the virus control and cytotoxicity as percentage of cell survival relative to cell control wells.

[1] = test system: Chikungunya Virus (CHIKV) strain LR2006-OPY1 with GFP modification (CHIK 5'LR); assay: Inhibition of Chikungunya virus (CHIKV) production in infected HEK293T cell line (GFP fluorescence); assay type: cell-based; details: HEK-293T, infected HEK293T cells; for inhibition at 1 µM: compounds at 1 μM, MOI 0.1, 22 h, values above 100 lowered to 100, read-out: % CHIKV Inhibition Mean (n = 2); for IC50: second round of experiments
Method: The ability of the compounds to inhibit viral replication was assessed with an experiment in which infected cells were treated by compounds of formula (I) at 1 μM. As a positive control for inhibition of Chikungunya, Ribavirin was used. Toxicity of the compounds was assessed in parallel.
Human embryonic kidney cells 293T (HEK293T, CRL-11268) were maintained in Dulbecco's modified Eagle's Medium (DMEM, 31966-021, Thermo Fisher Scientific) supplemented with 10% of fetal bovine serum (FBS), penicillin and streptomycin. After removal of the medium, cells were washed with a Ca^2+- and Mg^2+-free salt solution to remove all traces of serum. After aspiration of wash solution, cells were dissociated with 0.25% Trypsin-EDTA solution and incubated 30 s at least in 37° ° C. incubator. Concentration of cell suspension was determined by an automatic cell counter (EVE, NanoEntek) and, if needed, adjusted to 0.33×10^6 cells/mL with DMEM medium supplemented with 10% FBS.
100 μL of the cell suspension were dispatched in a ViewPlate-96 Black (6005182, PerkinElmer) and in a transparent 96-well cell culture plate (655180, Greiner bio-one). After an incubation for 24 h at 37° C. under 5% of CO2, compounds were added at the proper concentration.
An intermediate dilution was prepared with DMSO (D8418, Sigma) at 2 mM in a 96-well V-bottom microplate from the stock solution:
Mix 1 μL of the 50 mM stock library in 25 μL of DMSO.
Mix 2 μL of the 25 mM stock library in 25 μL of DMSO.
An intermediate dilution was prepared with DMSO (D8418, Sigma) at 25 mM in a 96-well V-bottom microplate from the stock solution:
Mix 2 μL of the 50 mM stock library in 2 μL of DMSO.
Serial dilutions were performed in 2 μL of DMSO 13 times to reach 0.0015 mM as follows in table III:
For both screen and determination of IC50 1 μL of each solution was added in a 1 mL Masterblock 96 wells (Greiner bio-one, 780261) containing 1 mL of DMEM medium. As a positive control, 5 μL of a 80 mM Ribavirin solution (R9644, Sigma) is added to 1 mL of DMEM. On the other hand, DMSO is used as a negative control.
[…]. Vector Borne Zoonotic Dis. 2006; 6(4)). This modified virus was used to infect cells at MOI 0.1. […].
Medium was removed after 22 h at 37° ° C. under 5% of CO2 and cells were washed as described above. 60 μL of RIPA buffer (50 mM Tris-HCl pH8, 100 mM NaCl, 1 mM MgCl2, 1% Triton X-100) was added to cells and incubated for at least 20 min before reading fluorescence signal. Pierce 660 nm Protein Assay Reagent (22660, Thermo scientific) was used to normalize fluorescence signal by protein quantity.
A first round of experiments has been performed wherein the results are expressed as inhibition percentage, which is calculated as follows, through the following steps:
1. Fluorescence intensity (FI) 509 nm/Absorbance 660 nm (A660)=A
This ratio allows considering the infection (GFP virus) to the protein amount.
2. A′=A—background noise of non-infected plate,
3. B=Fluorescence intensity (FI)/Absorbance 660 nm (A660) of infected but non treated plates,
4. C=A′/B which is then converted as the percentage of infection after treatment, compared to non-treated sample, and subsequently as the […]. For instance, a value of 100 in Table IV here below means that, after treatment, the signal attributed to GFP fluorescence is abolished, which is correlated to the absence of infection.
This value corresponds to the inhibition's percentage.
The following Table IV encompasses said C′ value for some compounds as calculated above with a mean of 2 experiments, and the corresponding standard deviation.
Some values were originally above 100. In these cases, the value has been lowered to 100. This means that some molecules also have an impact on the viability of the cells. In other words, the A value may be lower than the background noise.
Moreover, for each measure, the test was performed with Ribavirin as control. The value of the inhibition percentage was checked, giving 100%.

Compound | EC50 (RSV A2) [µM] | inhibition at 10 µM (DENV-2 strain 16681) [%] | inhibition at 1 µM [1] [%] | IC50 [1] [µM]
Cc1cc(OCc2ccccc2)ccc1Nc1ccc2cccc(Cl)c2n1 [Compound 47, N-(4-(benzyloxy)-2-methylphenyl)-8-chloroquinolin-2-amine] | 0.42 | 82 | – | –
Cc1cc(Oc2ccc3ccccc3c2)ccc1Nc1ccc2cccc(Cl)c2n1 [Compound 57, 8-chloro-N-(2-methyl-4-(naphthalen-2-yloxy)phenyl)quinolin-2-amine] | 0.473 | – | – | –
Cc1cc(OC(C)C)c(C2CC2)cc1Nc1ccc2cccc(Cl)c2n1 [Compound 48, 8-chloro-N-(5-cyclopropyl-4-isopropoxy-2-methylphenyl)quinolin-2-amine] | 0.36 | – | – | –
Cc1cc(Oc2cccc3ccccc23)ccc1Nc1ccc2cccc(Cl)c2n1 [Compound 54, 8-chloro-N-(2-methyl-4-(naphthalen-1-yloxy)phenyl)quinolin-2-amine] | 0.094 | 69 | – | –
CCCc1cc(OC(F)(F)F)ccc1Nc1ccc2cccc(Cl)c2n1 [Compound 6, 8-chloro-N-(2-propyl-4-(trifluoromethoxy)phenyl)quinolin-2-amine] | 1.21 | – | 100 | 0.001 to 0.2
Cc1cc(Oc2ccc(O)cc2F)ccc1Nc1ccc2ccccc2n1 [Compound 53, 3-fluoro-4-(3-methyl-4-(quinolin-2-ylamino)phenoxy)phenol] | 0.196 | – | – | –
COc1ccc(Oc2ccc(Nc3ccc4ccccc4n3)c(C)c2)cc1 [Compound 51, N-(4-(4-methoxyphenoxy)-2-methylphenyl)quinolin-2-amine] | 0.412 | – | – | –
Cc1ccc(Oc2ccc(Nc3ccc4ccccc4n3)cc2)cc1 [Compound 28, N-(4-(p-tolyloxy)phenyl)quinolin-2-amine] | 1.79 | – | – | –
Cc1c(Nc2ccc3cccc(Cl)c3n2)cccc1Oc1ccccc1 [Compound 55, 8-chloro-N-(2-methyl-3-phenoxyphenyl)quinolin-2-amine] | 0.192 | – | – | –
Cc1c(Nc2ccc3cccc(Cl)c3n2)cccc1OCc1ccccc1 [Compound 50, N-(3-(benzyloxy)-2-methylphenyl)-8-chloroquinolin-2-amine] | 0.283 | – | – | –
Cc1cc(Oc2ccccc2)ccc1Nc1ccc2cccc(Cl)c2n1 [Compound 56, 8-chloro-N-(2-methyl-4-phenoxyphenyl)quinolin-2-amine 2,2,2-trifluoroacetate] | 0.132 | 76 | – | –
Cc1c(Nc2ccc3cccc(Cl)c3n2)cccc1OC(C)C [Compound 49, 8-chloro-N-(3-isopropoxy-2-methylphenyl)quinolin-2-amine] | 0.513 | – | – | –
COc1ccc(Oc2ccc(Nc3ccc4ccccc4n3)c(C3CC3)c2)c(F)c1 [Compound 52, N-(2-cyclopropyl-4-(2-fluoro-4-methoxyphenoxy)phenyl)quinolin-2-amine] | 0.344 | – | – | –
Fc1ccccc1Oc1ccc(Nc2ccc3ccccc3n2)c(C2CC2)c1 [Compound 46, N-(2-cyclopropyl-4-(2-fluorophenoxy)phenyl)quinolin-2-amine] | – | 104 | – | 0.001 to 0.2
Cc1cc(OC(F)(F)F)ccc1Nc1ccc2cccc(Cl)c2n1 [Compound 1, 8-chloro-N-(2-methyl-4-(trifluoromethoxy)phenyl)quinolin-2-amine] | 3.31 | – | 97 | –
Cc1cc(Oc2ccccc2F)ccc1Nc1ccc2ccccc2n1 [Compound 38, N-(4-(2-fluorophenoxy)-2-methylphenyl)quinolin-2-amine] | 0.2 | – | 98 | 0.001 to 0.2
CCc1cc(Oc2ccccc2F)ccc1Nc1ccc2ccccc2n1 [Compound 39, N-(2-ethyl-4-(2-fluorophenoxy)phenyl)quinolin-2-amine] | – | 104 | 99 | 0.001 to 0.2
